Our source for the EC50 values is paper PMC7385489, “β-hydroxybutyrate and hydroxycarboxylic acid receptor 2 agonists activate the AKT, ERK and AMPK pathways, which are involved in bovine neutrophil chemotaxis” (Scientific Reports, 2020).

The assay addresses hydroxycarboxylic acid receptor 2 (HCA2) (Bos taurus, UniProt G3N168). Kind of assay: Fura-2 calcium mobilization in native bovine neutrophils expressing HCA2. Type of assay: cell-based. (In general: Calcium flux is commonly read through the fluorescence of an indicator in the cells.)

hydroxycarboxylic acid receptor 2 (HCA2), sequence (G3N168 1-379): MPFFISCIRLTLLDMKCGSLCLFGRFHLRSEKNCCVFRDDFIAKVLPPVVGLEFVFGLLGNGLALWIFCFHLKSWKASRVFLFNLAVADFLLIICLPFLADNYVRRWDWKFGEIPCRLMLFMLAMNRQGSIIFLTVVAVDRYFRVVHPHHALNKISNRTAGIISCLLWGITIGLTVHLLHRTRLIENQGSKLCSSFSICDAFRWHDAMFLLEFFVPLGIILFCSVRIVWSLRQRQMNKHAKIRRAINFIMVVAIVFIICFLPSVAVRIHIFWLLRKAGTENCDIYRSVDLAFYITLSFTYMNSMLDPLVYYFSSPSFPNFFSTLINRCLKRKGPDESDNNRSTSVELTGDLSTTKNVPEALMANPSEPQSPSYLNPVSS

By EC50 is commonly meant the concentration needed to bring the measured effect to its halfway point. Consider `O=C(O)c1n[nH]c2c1C[C@H]1C[C@@H]21` [MK-1903, (1aR,5aR)1a,3,5,5a-Tetrahydro-1H-2,3-diaza-cyclopropa[a]pentalene-4-carboxylic acid], for which the 50% effective concentration (EC50) came out at 3.38e-05 mM. In the case of `CC(O)CC(=O)O` (stereo not drawn) [BHB, β-hydroxybutyrate] it was 2.65 mM.
